A word on the CC50: it is the concentration that lowers cell viability or growth by half. What is called EC50 is the midpoint of the concentration-response curve.

21 compounds from US10954252B1, “Inhibitors of human immunodeficiency virus replication” (ViiV HEALTHCARE UK (NO.5) LIMITED, priority 2017, dated 2021) can be followed below.

Data set [1] is described as follows: Compound cytotoxicity, XTT-based colorimetric assay. Format: cell-based. The note with it: human, uninfected MT2 cells. A digest of the protocol: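 XTT colorimetric read-out on day 4 gave CC50 values, using MT2 cells left uninfected but otherwise handled as in the antiviral assay.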
(In general: Tetrazolium assays rely on reduction of a dye to a coloured formazan, in cell work by metabolically active cells.)

In data set [2] the test system is recombinant NL4-3 virus (nef section replaced with Renilla luciferase gene) in MT-2 cells. Briefly: HIV cell culture assay (antiviral activity, luciferase readout). It is filed as cell-based. The settings on record: MT-2 cells infected for 4-5 days with recombinant NL4-3 luciferase virus. A digest of the protocol: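 Serially diluted compounds were present throughout a 4-5 day infection of MT-2 cells by recombinant NL4-3 whose nef region partly encodes Renilla luciferase. Antiviral activity was taken from live-cell luciferase signal, with the 50% effective concentration fitted by the exponential median effect equation.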

The compound `COc1ccc2c(=O)n(-c3ccc(Cl)c4c(NS(C)(=O)=O)nn(C)c34)c([C@H](Cc3cc(F)cc(F)c3)NC(=O)Cn3nc(C(F)F)c4c3C(F)(F)C3CC43)nc2n1` (stereo in doubt) [Example 13.2, N—((S)-1-(3-(4-chloro-1-methyl-3-(methylsulfonamido)-1H-indazol-7-yl)-7-methoxy-4-oxo-3,4-dihydropyrido[2,3-d]pyrimidin-2-yl)-2-(3,5-difluorophenyl)ethyl)-2-((3bS,4aR)-3-(difluoromethyl)-5,5-difluoro-3b,4,4a,5-tetrahydro-1H-cyclopropa[3,4]cyclopenta[1,2-c]pyrazol-1-yl)acetamide] came in with a CC50 at 4 days in data set [1] (Table 1, day 4, XTT) of over 10000 nM. Moreover, the 50% effective concentration (EC50) in data set [2] (Renilla, NL43, Table 1) worked out at 18 nM.
With `Cn1nc(NS(C)(=O)=O)c2c(Cl)ccc(-c3c(C(Cc4cc(F)cc(F)c4)NC(=O)Cn4nc(C(F)F)c5c4C(F)(F)[C@@H]4C[C@H]54)ncc4[nH]cnc34)c21` (single isomer, unassigned) [Example 7.3], in data set [1] (Table 1, day 4, XTT), the CC50 at 4 days was over 10000 nM. Besides, the 50% effective concentration (EC50) in data set [2] (Table 1) amounted to 10000 nM.
In data set [1] (Table 1, day 4, XTT), `CC(C)c1ccc(-c2cc3[nH]ncc3nc2C(Cc2cc(F)cc(F)c2)NC(=O)Cn2nc(C(F)F)c3c2C(F)(F)[C@@H]2C[C@H]32)cn1` (single isomer, unassigned) [Example 3.9] had a CC50 at 4 days of 9600 nM. Besides, the 50% effective concentration (EC50) in data set [2] (Renilla, NL43, Table 1) was found to be 9.9 nM.
Consider `O=C(Cn1nc(C(F)F)c2c1C(F)(F)[C@@H]1C[C@H]21)NC(Cc1cc(F)cc(F)c1)c1nc2cc[nH]c2cc1-c1ccc2c(c1)C(=O)NC2` (stereo partly drawn) [Example 61, 2-((3bS,4aR)-3-(difluoromethyl)-5,5-difluoro-3b,4,4a,5-tetrahydro-1H-cyclopropa[3,4]cyclopenta[1,2-c]pyrazol-1-yl)-N-(2-(3,5-difluorophenyl)-1-(6-(3-oxoisoindolin-5-yl)-1H-pyrrolo[3,2-b]pyridin-5-yl)ethyl)acetamide], for which the cytotoxic concentration (CC50) at 4 days in data set [1] (Table 1a, day 4, XTT) was over 10000 nM. Further, the half-maximal effective concentration (EC50) in data set [2] (Renilla, NL43, Table 1a) was found to be 4.51 nM.
The compound `CC(C)c1ccc(-n2c([C@H](Cc3cc(F)cc(F)c3)NC(=O)Cn3nc(C(F)F)c4c3C(F)(F)[C@@H]3C[C@H]43)nc3cc(C#N)ccc3c2=O)cn1` [Example 163, N—((S)-1-(7-cyano-3-(6-isopropylpyridin-3-yl)-4-oxo-3,4-dihydroquinazolin-2-yl)-2-(3,5-difluorophenyl)ethyl)-2-((3bS,4aR)-3-(difluoromethyl)-5,5-difluoro-3b,4,4a,5-tetrahydro-1H-cyclopropa[3,4]cyclopenta[1,2-c]pyrazol-1-yl)acetamide] registered a cytotoxic concentration (CC50) at 4 days in data set [1] (Table 1a, day 4, XTT) of 3980 nM. Besides, the EC50 in data set [2] (Renilla, NL43, Table 1a) was found to be 11.9 nM.
For `Cn1nc(NS(C)(=O)=O)c2c(Cl)ccc(-n3c([C@H](Cc4cc(F)cc(F)c4)NC(=O)Cn4ccc(N)n4)nc4ncccc4c3=O)c21` (single isomer, unassigned) [Example 50.2], in that order: over 1000 nM and 32.1 nM.
In turn, `COc1ccc2nc([C@H](Cc3cc(F)cc(F)c3)NC(=O)Cn3nc(C(F)F)c4c3C(F)(F)[C@@H]3C[C@H]43)n(-c3ccc(Cl)c4c(NS(C)(=O)=O)nn(C)c34)c(=O)c2c1` (single isomer, unassigned) [Example 173] showed a CC50 at 4 days in data set [1] (Table 1a, day 4, XTT) of over 1000 nM. The EC50 in data set [2] (Table 1a) came out at 32 nM.
`N#Cc1cnc2nc([C@H](Cc3cc(F)cc(F)c3)NC(=O)Cn3nc(C(F)F)c4c3C(F)(F)[C@@H]3C[C@H]43)n(-c3ccc(C4CC4)cc3)c(=O)c2c1` [Example 39, N-[(1S)-1-[6-cyano-3-(4-cyclopropylphenyl)-4-oxo-3H,4H-pyrido[2,3-d]pyrimidin-2-yl]-2-(3,5-difluorophenyl)ethyl]-2-[(2S,4R)-9-(difluoromethyl)-5,5-difluoro-7,8-diazatricyclo[4.3.0.0^2,4]nona-1(6),8-dien-7-yl]acetamide] came in with a half-maximal cytotoxic concentration (CC50) at 4 days in data set [1] (Table 1a, day 4, XTT) of 2000 nM. In addition, the EC50 in data set [2] (Renilla, NL43, Table 1a) amounted to 3.76 nM.
`COc1cc(OC)c2c(=O)n(-c3ccc(Cl)c4c(NS(C)(=O)=O)nn(C)c34)c([C@H](Cc3cc(F)cc(F)c3)NC(=O)Cn3nc(C(F)F)c4c3C(F)(F)[C@@H]3C[C@H]43)nc2c1` (single isomer, unassigned) [Example 181] gave a CC50 at 4 days in data set [1] (Table 1a, day 4, XTT) of over 1000 nM. In data set [2] (Table 1a), the EC50 stood at 23.1 nM.
For `Cc1cc(F)c2c(=O)n(-c3ccc(Cl)c4c(NS(C)(=O)=O)nn(C)c34)c(C(Cc3cc(F)cc(F)c3)NC(=O)Cn3nc(C(F)F)c4c3C(F)(F)[C@@H]3C[C@H]43)nc2c1` (mixture of isomers) [Example 171, N—((S)-1-(3-(4-chloro-1-methyl-3-(methylsulfonamido)-1H-indazol-7-yl)-5-fluoro-7-methyl-4-oxo-3,4-dihydroquinazolin-2-yl)-2-(3,5-difluorophenyl)ethyl)-2-((3bS,4aR)-3-(difluoromethyl)-5,5-difluoro-3b,4,4a,5-tetrahydro-1H-cyclopropa[3,4]cyclopenta[1,2-c]pyrazol-1-yl)acetamide], the CC50 at 4 days in data set [1] (Table 1a, day 4, XTT) was over 1000 nM. The EC50 in data set [2] (Renilla, NL43, Table 1a) was found to be 3.96 nM.
For `Cn1nc(NS(C)(=O)=O)c2c(Cl)ccc(-n3c([C@H](Cc4cc(F)cc(F)c4)NC(=O)Cn4nc(C(F)F)c5c4C(F)(F)[C@@H]4C[C@H]54)nc4cccc(C(F)(F)F)c4c3=O)c21` (single isomer, unassigned) [Example 127], in data set [1] (Table 1a, day 4, XTT), the CC50 at 4 days is over 1000 nM. For the same compound, in data set [2] (Table 1a), the concentration giving a half-maximal response (EC50) amounted to 379 nM.
Take `Cn1nc(NS(C)(=O)=O)c2c(Cl)ccc(-c3cc4cc[nH]c4nc3C(Cc3cc(F)cc(F)c3)NC(=O)Cn3nc(C(F)F)c4c3C(F)(F)[C@@H]3C[C@H]43)c21` (single isomer, unassigned) [Example 83]: the CC50 at 4 days in data set [1] (Table 1a, day 4, XTT) was over 10000 nM. The concentration giving a half-maximal response (EC50) in data set [2] (Table 1a) worked out at 1.02 nM.
`Cn1nc(NS(C)(=O)=O)c2c(Cl)ccc(-n3c([C@H](Cc4cc(F)cc(F)c4)NC(=O)Cn4ccc(C5CC5)n4)nc4cc(C(C)(C)S(C)(=O)=O)ccc4c3=O)c21` (single isomer, unassigned) [Example 212]: the CC50 at 4 days in data set [1] (Table 1a, day 4, XTT) was over 1000 nM. For the same compound, the half-maximal effective concentration (EC50) in data set [2] (Renilla, NL43, Table 1a) turned out to be 0.63 nM.
As for `COc1c(F)ccc2c(=O)n(-c3ccc(Cl)c4c(NS(C)(=O)=O)nn(C)c34)c([C@H](Cc3cc(F)cc(F)c3)NC(=O)Cn3nc(C(F)F)c4c3C(F)(F)[C@@H]3C[C@H]43)nc12` (single isomer, unassigned) [Example 109], the cytotoxic concentration (CC50) at 4 days in data set [1] (Table 1a, day 4, XTT) is over 1000 nM. Further, the EC50 in data set [2] (Table 1a) amounted to 118 nM.
`NC(=O)c1cc(-n2c([C@H](Cc3cc(F)cc(F)c3)NC(=O)Cn3nc(C(F)F)c4c3C(F)(F)[C@@H]3C[C@H]43)nc3ncccc3c2=O)ccc1Cl` [Example 34, 2-Chloro-5-{2-[(1S)-1-{2-[(2S,4R)-9-(difluoromethyl)-5,5-difluoro-7,8-diazatricyclo[4.3.0.0^2,4]nona-1(6),8-dien-7-yl]acetamido}-2-(3,5-difluorophenyl)ethyl]-4-oxo-3H,4H-pyrido[2,3-d]pyrimidin-3-yl}benzamide]: the CC50 at 4 days in data set [1] (Table 1a, day 4, XTT) is over 10000 nM. Further, the EC50 in data set [2] (Renilla, NL43, Table 1a) turned out to be 6.93 nM.
Compound `COc1ccc2c(=O)n(-c3ccc(Cl)c4c(NS(C)(=O)=O)nn(C)c34)c(C(Cc3cc(F)cc(F)c3)NC(=O)Cn3nc(C(F)F)c4c3C(F)(F)C3CC43)nc2n1` (stereo in doubt) [Example 13.1, N—((S)-1-(3-(4-chloro-1-methyl-3-(methylsulfonamido)-1H-indazol-7-yl)-7-methoxy-4-oxo-3,4-dihydropyrido[2,3-d]pyrimidin-2-yl)-2-(3,5-difluorophenyl)ethyl)-2-((3bS,4aR)-3-(difluoromethyl)-5,5-difluoro-3b,4,4a,5-tetrahydro-1H-cyclopropa[3,4]cyclopenta[1,2-c]pyrazol-1-yl)acetamide] showed a CC50 at 4 days in data set [1] (Table 1, day 4, XTT) of over 10000 nM. For the same compound, the EC50 in data set [2] (Renilla, NL43, Table 1) was 14300 nM.
Take `Cc1ccn(CC(=O)N[C@@H](Cc2cc(F)cc(F)c2)c2nc3ncccc3c(=O)n2-c2ccc(Cl)c3c(NS(C)(=O)=O)nn(C)c23)n1` (single isomer, unassigned) [Example 47.1]: the CC50 at 4 days in data set [1] (Table 1a, day 4, XTT) is over 1000 nM. Further, the concentration for a half-maximal effect (EC50) in data set [2] (Table 1a) is 227 nM.
The compound `CS(=O)(=O)Nc1nn(CC(F)F)c2c(-c3cc4[nH]ncc4nc3[C@H](Cc3cc(F)cc(F)c3)NC(=O)Cn3nc(C(F)F)c4c3C(F)(F)[C@@H]3C[C@H]43)ccc(Cl)c12` (single isomer, unassigned) [Example 92] displayed a CC50 at 4 days in data set [1] (Table 1a, day 4, XTT) of over 10000 nM. Also, the EC50 in data set [2] (Renilla, NL43, Table 1a) is 0.161 nM.
For the compound `Cn1nc(NS(C)(=O)=O)c2c(Cl)ccc(-c3cc4scnc4nc3C(Cc3cc(F)cc(F)c3)NC(=O)Cn3nc(C(F)F)c4c3C(F)(F)[C@@H]3C[C@H]43)c21` (single isomer, unassigned) [Example 1.4], the CC50 at 4 days in data set [1] (Table 1, day 4, XTT) was over 10000 nM. The concentration giving a half-maximal response (EC50) in data set [2] (Table 1) amounted to 0.1 nM.
The corresponding values for `Cc1nc2nc(C(Cc3cc(F)cc(F)c3)NC(=O)Cn3nc(C(F)F)c4c3CCC4)c(-c3ccc(Cl)c4c(NS(C)(=O)=O)nn(C)c34)cc2s1` (single isomer, unassigned) [Example 2.3, N-(1-(6-(4-chloro-1-methyl-3-(methylsulfonamido)-1H-indazol-7-yl)-2-methylthiazolo[4,5-b]pyridin-5-yl)-2-(3,5-difluorophenyl)ethyl)-2-(3-(difluoromethyl)-5,6-dihydrocyclopenta[c]pyrazol-1(4H)-yl)acetamide] are over 10000 nM and 0.1 nM.
In data set [1] (Table 1, day 4, XTT), `CC(C)c1ccc(-n2c([C@H](Cc3cc(F)cc(F)c3)NC(=O)Cn3nc(C(F)F)c4c3C(F)(F)[C@@H]3C[C@H]43)nc3ncccc3c2=O)cn1` [Example 10.37] came in with a half-maximal cytotoxic concentration (CC50) at 4 days of 6900 nM. Further, in data set [2] (Renilla, NL43, Table 1), the EC50 was found to be 4.8 nM.
